In article PMC7209772 (Molecular microbiology, 2019):

Molecular target: T1, GacB (MxGacB, MXAN_2643), Hypr GGDEF enzyme (Myxococcus xanthus, UniProt Q1D911)
T1 sequence (Q1D911 1-364): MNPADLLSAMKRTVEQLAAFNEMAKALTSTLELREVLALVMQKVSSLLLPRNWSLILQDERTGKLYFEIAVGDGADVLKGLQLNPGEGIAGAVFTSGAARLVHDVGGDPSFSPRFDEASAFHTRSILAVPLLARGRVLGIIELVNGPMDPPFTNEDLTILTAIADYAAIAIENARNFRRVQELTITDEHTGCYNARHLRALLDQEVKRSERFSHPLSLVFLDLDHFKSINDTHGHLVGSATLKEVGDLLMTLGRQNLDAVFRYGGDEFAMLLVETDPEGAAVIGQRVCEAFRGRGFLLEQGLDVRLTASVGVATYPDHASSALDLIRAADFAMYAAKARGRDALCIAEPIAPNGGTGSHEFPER
Experiment: LC-MS inhibition assay
Type: biochemical

Compound `Nc1nc2c(ncn2[C@@H]2O[C@@H]3CO[P@](=O)(O)O[C@H]4[C@@H](O)[C@H](n5cnc6c(=O)[nH]c(N)nc65)O[C@@H]4CO[P@](=O)(O)O[C@H]3[C@H]2O)c(=O)[nH]1` [cdiG, cyclic di-GMP] has an IC50 of 17.8 µM.
